Several values for one entry are separate records, joined by “and”; a condition that tells them apart may be missing. Identical values can stand only once. Like-named read-outs stand apart in the source and are kept apart here. Each block holds one compound with its values, some of them ahead of it.
What was measured:
[1] = tested on: LCE; assay: Substrate cleavage by LCE; assay type: biochemical; settings: cleavage to drug monophosphate and DMDOP
Text: Das Enzym wird vorzugsweise aus humanen peripheren Blutleukozyten, die zuvor durch PHA oder andere Stimulantien (z.B. Cytokine, etc.) aktiviert wurden, oder aus murinen Nierenzellen isoliert. Aus vorläufigen Untersuchungen ergibt sich ein Molekulargewicht von etwa 120.000 - 160.000, bestimmt nach der SDS-PAGE-Methode. Zellen, die dieses Enzym enthalten, können auf einfache Weise dadurch identifiziert werden, indem sie unter geeigneten Testbedingungen mit einer Lösung von AZT-DMDOPE oder FLT-DMDOPE versetzt werden und die Spaltprodukte AZT-monophosphat bzw. FLT-monophosphat oder DMDOP nachgewiesen werden, beispielsweise durch dünnschichtchromatographische Methoden oder im Fall von radioaktiv markierten Proben durch szintillatographische Verfahren (siehe Beispiele 4 - 7). Im Gegensatz zu den biochemisch verwandten Phospholipasen C oder -D wird das LCE nicht durch bekannte Inhibitoren von Phospholipase C oder -D gehemmt oder durch Aktivatoren von Phospholipase C oder -D aktiviert. Im Gegensatz zu Phospholipase C wird das Enzym durch die Substanz D 609 (Tricyclodecan-9-yl-xanthogenat; C11H15OS2 K) aktiviert, während D 609 Phospholipase C inhibiert.

[2] = tested on: LCE; assay: Influence of enzyme inhibitors or activators on LCE activity, kidney membrane fraction; assay type: biochemical, Balb/c
Method: Das Pipettierschema ist in der folgenden Tabelle angegeben. Tabelle
Zur Untersuchung der enzymatischen Spaltung in Abhängigkeit von der Substratkonzentration wurde eine Substratstammlösung von 0.98 nmol [^14C]-AZT-DMDOPE und 0.7 nmol AZT-DMDOPE/80 µl Aqua bidest. im LCE-Assay angesetzt. Die verschiedenen Substratkonzentrationen im LCE-Assay wurden durch kontinuierliche Verdopplung bzw. Halbierung des Volumens an Substratlösung eingestellt. Die Ansätze wurden in Glasröhrchen (5 ml) vorgelegt und durch Zugabe der Substratlösung gestartet. Die Inkubation wurde bei 37 °C im Wasserbad unter leichtem Schütteln durchgeführt.
Die Reaktionsansätze des LCE-Assays wurden nach entsprechender Inkubationszeit dem Wasserbad entnommen, und die Reaktion durch Zugabe von 750 µl 2-Propanol gestoppt. Nach gründlicher Durchmischung wurden die Ansätze anschließend mit 700 µl auf Raumtemperatur erwärmtem n-Heptan versetzt. Die Ansätze wurden erneut für 30 sec gut gemischt und zur Beschleunigung der Phasentrennung in der Minifuge T bei 3200 rpm für 15 min bei Raumtemperatur zentrifugiert. Anschließend wurden 500 µl der oberen Phase (n-Heptan) entnommen und in neue Glasröhrchen (5 ml) mit 10 mg Kieselgel 60 H und 200 µl n-Heptan überführt. Die Ansätze wurden für 30 sec gut durchmischt und zur Sedimentation des Kieselgels für 10 min unter oben genannten Bedingungen zentrifugiert. Vom Überstand wurden anschließend 500 µl entnommen und mit 3 ml Szintillationsflüssigkeit versetzt. Die Messung der Radioaktivität erfolgte für 4 min im Flüssigkeits-Szintillations-Analysator. Zur Bestimmung des Absolutwertes an Radioaktivität wurden 200 µl der Substratlösung mit 3 ml Szintillationsflüssigkeit versetzt und unter gleichen Bedingungen im Flüssigkeits-Szintillations-Analysator gemessen.

[3] = tested on: P3X63Ag8.653-Zellen; assay: Intracellular concentrations of AZT and AZT nucleotides (radioimmunoassay) in thymidine kinase deficient cells; assay type: in vitro ADME; settings: after 48 h
Text: Die Bestimmung der intrazellulären Konzentrationen an AZT und AZT-Nukleotiden in Thymidikinasedefizienten Zellen sollte weitere Erkenntnisse über die intrazelluläre Spaltung der Testsubstanz AZT-DMDOPE liefern. Intrazelluläres AZT kann in diesen Zellen aufgrund eines Mangels an Thymidin-Kinase (TK) nicht in ATZ-MP und somit in das therapeutisch wirksame AZT-TP überführt werden. Die Bestimmung der intrazellulären Konzentrationen an AZT und AZT-Nukleotiden nach Inkubation mit AZT-DMDOPE könnte somit einen weiteren Hinweis auf die Spaltung der Teststubstanz geben.
Hierfür wurden in Gewebekulturschalen (60 x 15 mm) 1 x 10^7 Zellen in RPMI 1640 Komplettmedium I mit 0.03 bzw. 0.3 µg AZT/ml und 1 bzw. 10 µg AZT-DMDOPE/ml über 6, 24 und 48 h inkubiert. Nach Extraktion von AZT und der AZT-Nukleotide und einer Behandlung mit alkalischer Phosphatase wurde die Konzentration an AZT mit Hilfe des Radioimmuno-Assays bestimmt.

[4] = molecular target: virale reverse Transkriptase (RT) (Human immunodeficiency virus type 1 group M subtype B, UniProt P04585); settings: intracellular AZT in non-phosphorylated form; cited from earlier work
[5] = tested on: stimulierten humanen PBL; assay: Intracellular concentrations of AZT and AZT nucleotides (radioimmunoassay) in stimulated human PBL; settings: for Konzentrationen an AZT und AZT-Nukleotiden nach Abfall bei zunehmender Inkubationszeit: up to 24 h
Text: Zur Bestimmung der intrazellulären Konzentrationen an AZT und/oder AZT-Nukleotiden nach Inkubation mit AZT-DMDOPE bzw. AZT wurden humane PBL aus "Buffy coat" isoliert.
Hierfür wurde "Buffy-coat" von gesunden Spendern gemischt und durch Zentrifugation in einem isotonischen Medium mit einer Dichte von 1.077 g/ml fraktioniert. Da mononukleare Blutzellen (Monozyten und Lymphozyten) eine geringere Dichte als Erythrozyten und polymorphkernige Granulozyten haben, bilden sie einen Ring an der Grenze zwischen Trennmedium und Probe und können mit Hilfe einer Pipette abgenommen werden. Erythrozyten und polymorphkernige Granulozyten sedimentieren aufgrund ihrer höheren Dichte durch das Medium und lassen sich somit von PBL separieren. Zur Stimulation der Zellproliferation wurde Phytohämaglutinin A (Mukoprotein) (PHA-M), der mitogene Lektinextrakt aus der roten Feuerbohne (Phaseolus vulgaris), eingesetzt. Phytohämagglutinin ist eine Familie von 5 Isolektinen, die als Tetramere vorliegen. Die Untereinheiten bestehen aus einem lymphozytenreaktiven Typ-L und einem erythrozytenreaktiven Typ-E. Typ-L hat eine hohe Affinität zu Lymphozytenoberflächenrezeptoren und ist somit verantwortlich für die mitogenen Eigenschaften. Die Stimulation der Lymphozyten wurde in KPMI 1640 Komplettmedium III für 72 h bei 37 °C und 5 % CO2 durchgeführt. Nach Beendigung der Stimulation wurden zur Erhöhung der Zellzahl die Zellen für weitere 24 h in RPMI 1640 Komplettmedium IV kultiviert.
Zur Bestimmung der intrazellulären Konzentrationen an AZT und AZT-Nukleotiden wurden die Zellen in RPMI 1640 Komplettmedium II mit einer Dichte von 1 x 10^6 Zellen/ml in Gewebekulturflaschen (50 ml/25 cm^2) überführt, und in Anwesenheit von 0.03 bzw. 0.3 µg AZT/ml (Charge 15) und 1 bzw. 10 µg AZT-DMDOPE/ml für 1 - 24 h inkubiert.
Die Kulturen wurden anschließend für 1, 3, 6 und 24 h bei 37 °C und 5 % CO2 inkubiert. AZT und seine Nukleotide wurden anschließend mit 60 % Methanol extrahiert. Die extrahierten Nukleotide wurden mit alkalischer Phosphatase quantitativ zu AZT dephosphoryliert, da nur AZT, nicht jedoch die entsprechenden Nukleotide mit Hilfe eines Radioimmuno-Assays detektiert werden kann.
Die Konzentrationen an intrazellulärem AZT, die mit Hilfe des Radioimmuno-Assays bestimmt wurden, setzten sich dementsprechend aus der des AZT und den der AZT-Nukleotide zusammen. Eine separate Quantifizierung der Konzentrationen an AZT-MP, AZT-DP und AZT-TP wurde nicht durchgeführt.
Diese Experimente wurden an stimulierten humanen PBL durchgeführt.
Hierfür wurden Zellsuspensionen mit einer Dichte von 10^6 Zellen/ml mit 1 bzw. 10 µg AZT-DMDOPE/ml für 6 bzw. 24 h bei 37 °C und 5 % CO2 inkubiert.
Zur quantitativen Bestimmung von AZT wurde ein kommerzieller ^125J-AZT RIA Test-Kit verwendet. Puffer und Lösungen wurden gemäß den Angaben des Herstellers angesetzt und im Test-Kit eingesetzt. Die Reaktionsansätze wurden nach untenstehendem Schema (Tab. ) pipettiert, vorsichtig gemischt und für 2 h bei Raumtemperatur inkubiert. Anschließend wurden zur Präzipitation des Komplexes aus ^125J-AZT und des AZT-Antikörpers (aus Kaninchen) 500 µl des Ziege-Anti-Kaninchen-Antikörpers hinzugefügt. Die Ansätze wurden gemischt und erneut bei Raumtemperatur für 30 min inkubiert.

[6] = tested on: stimulierten humanen PBL; assay: Intracellular decay kinetics of AZT and AZT nucleotides after removal of the incubation solution; assay type: in vitro ADME, human; settings: 24 h preincubation with 0.3 µg AZT/ml, reached 6 h after removal
Method: Stimulierte humane PBL wurden für 24 h mit 0.3 µg AZT/ml bzw. 10 µg AZT-DMDOPE/ml inkubiert. Anschließend wurden 1 x 10^7 Zellen in Gewebekulturflaschen (50 ml/25 cm^2) mit RPMI 1640 Komplettmedium I überführt. Nach 1, 3, 6, 24 und 48 h wurde AZT und die AZT-Nukleotide aus der zellulären Matrix extrahiert. Nach einer Behandlung mit alkalischer Phosphatase wurde mit Hilfe des Radioimmuno-Assays die Konzentration an AZT bestimmt.

[7] = tested on: nichtstimulierten humanen PBL; assay: Intracellular concentrations of AZT and AZT nucleotides (radioimmunoassay) in non-stimulated human PBL; assay type: in vitro ADME
Text: AZT wurden humane PBL aus "Buffy coat" isoliert.

[8] = tested on: stimulierten PBL; settings: stimulierte PBL, Arner et al., 1992; cited from earlier work
[9] = tested on: LCE; assay: LCE assay: dependence of AZT-DMDOPE cleavage on EGTA and divalent metal cations; assay type: biochemical, human; settings: for DMDOP / Spezifische Aktivität / Inhibition: Effektor 2 mM, 2 h 37 °C, n = 3; for DMDOP / Spezifische Aktivität: Membranfraktionen stimulierter humaner PBL 0.068 mg/Ansatz; for Inhibition: relative to EGTA, Membranfraktionen stimulierter humaner PBL; for Inhibierung der LCE-Aktivität (in words): divalent metal cations, 2 mM in Example 9
Method: Die Abhängigkeit der enzymatischen Spaitung von AZT-DMDOPE durch das LCE von zweiwertigen Metallkationen wurde mit Membranfraktionen stimulierter humaner PBL als Enzymquelle untersucht.
Die zweiwertigen Metallkationen wurden in einer Konzentration von 2 mM im LCE-Assay eingesetzt. Die Proteinkonzentration wurde mit 0.068 mg/Ansatz festgelegt.
Parallel wurde ein Ansatz mit EGTA mitgeführt. EGTA ist ein spezifischer Komplexbildner für Ca^2+ das essentiell für die Aktivität der Phospholipase C ist. Nach einer Inkubationszeit von 2 h bei 37 °C wurde der Umsatz der Muttersubstanz gemessen und die spezifische Aktivität des LCE bestimmt (folgende Tabelle).

[10] = LCE Membranfraktion Niere (Balb/c)

Compound: CCCCCCCCCCCCSCC(COP(=O)(O)OC[C@H]1O[C@@H](n2cc(F)c(=O)[nH]c2=O)[C@H](O)[C@@H]1O)OCCCCCCCCCC (stereo partly shown) [5-FU-DMDOPE, (5-Fluoruridin)-5'-phosphorsäure-(3-dodecylmercapto-2-decyloxy)-propylester]
- Spaltung durch LCE [1]: gespalten

- Einfluß auf LCE-Aktivität [2, 10]: keine
Compound: O=[N+]([O-])c1cccc2cn[nH]c12 [7-Nitroindazol]

Compound: Cc1cn([C@H]2C[C@H](N=[N+]=[N-])[C@@H](CO)O2)c(=O)[nH]c1=O [AZT, 3'-Desoxy-3'-azidothymidin, reference compound]
- maximale intrazelluläre Konzentrationen an AZT und AZT-Nukleotiden ([3]; 0.03 µg AZT/ml): 0.03 ng/10^6 Zellen
- maximale intrazelluläre Konzentrationen an AZT und AZT-Nukleotiden ([3]; 0.3 µg AZT/ml): 0.31 ng/10^6 Zellen
- inhibitorische Wirkung auf die virale reverse Transkriptase (RT) [4]: keine inhibitorische Wirkung
- maximale Konzentrationen an AZT und AZT-Nukleotiden ([5]; incubation with 0.03 µg AZT/ml, reached after 6 h): 2.90 ng/10^6 Zellen
- Konzentrationen an AZT und AZT-Nukleotiden nach Abfall bei zunehmender Inkubationszeit ([5]; incubation with 0.03 µg AZT/ml): 2.32 ng/10^6 Zellen
- maximale Konzentrationen an AZT und AZT-Nukleotiden ([5]; incubation with 0.3 µg AZT/ml, reached after 3 h): 30.97 ng/10^6 Zellen
- Konzentrationen an AZT und AZT-Nukleotiden nach Abfall bei zunehmender Inkubationszeit ([5]; incubation with 0.3 µg AZT/ml): 19.88 ng/10^6 Zellen
- konstanter Wert der intrazellulären Konzentrationen an AZT und AZT-Nukleotiden [6]: 0.40 ng/10^6 Zellen
- intrazelluläre Konzentrationen an AZT und AZT-Nukleotiden ([7]; 0.03 µg AZT/ml): 0.10 ng/10^6 Zellen
- intrazelluläre Konzentrationen an AZT und AZT-Nukleotiden ([7]; 0.3 µg AZT/ml): 0.47 ng/10^6 Zellen

Compound: Cc1cn([C@H]2C[C@H](N=[N+]=[N-])[C@@H](COP(=O)(O)O)O2)c(=O)[nH]c1=O [AZT-MP, 3'-Desoxy-3'-azidothymidin-monophosphat]
- im Vergleich zu AZT-DP und AZT-TP um Faktor höhere Konzentration an AZT-MP [8]: 40

Compound: CC(=O)Oc1ccccc1C(=O)O [Acetylsalicylsäur e]
- Einfluß auf LCE-Aktivität [2, 10]: keine

Compound: O=C(O)CN(CCOCCOCCN(CC(=O)O)CC(=O)O)CC(=O)O [EGTA]
- DMDOP [9]: 84.96 ± 11.18 pmol
- Spezifische Aktivität [9]: 10.41 ± 1.37 pmol/mg/min
- Inhibition [9]: ≡ 0%

Compound: CCCCCCCCCCCCSCC(COP(=O)(O)OC[C@H]1O[C@@H](n2cc(C)c(=O)[nH]c2=O)C[C@@H]1F)OCCCCCCCCCC (stereo partly shown) [FLT-DMDOPE, (3'-Desoxy-3'-fluorthymidin)-5'-phosphorsäure-(3-dodecylmercapto-2-decyloxy)-propylester]
- Spaltung durch LCE [1]: gespalten

- Einfluß auf LCE-Aktivität [2, 10]: keine
Compound: Nc1nc2c(ncn2C2OC(COP(=O)(O)OP(O)(=S)OP(=O)(O)O)C(O)C2O)c(=O)[nH]1 (stereo not drawn) [GTP-β-S]

Compound: [Cl][Mn][Cl] [MnCl2]
- DMDOP [9]: 4.75 ± 0.63 pmol
- Spezifische Aktivität [9]: 0.58 ± 0.08 pmol/mg/min
- Inhibition [9]: 94%
- Inhibierung der LCE-Aktivität (in words) [9]: totalen Hemmung
- Inhibierung der LCE-Aktivität (in words) ([9]; listed as Mn^2+): Inhibierung

- Einfluß auf LCE-Aktivität [2, 10]: keine
Compound: O=C(NCCCCCCNC(=O)ON=C1CCCCC1)ON=C1CCCCC1 [RHC-80267]

- Einfluß auf LCE-Aktivität [2, 10]: keine
Compound: Nc1ncnc2c1ncn2C1CCCO1 (stereo not shown) [SQ 22536]

Compound: COC[C@H]1OC(=O)c2coc3c2[C@@]1(C)C1=C(C3=O)[C@@H]2CCC(=O)[C@@]2(C)C[C@H]1OC(C)=O [Wortmannin]
- Einfluß auf LCE-Aktivität [2]: keine

Compound: CaCl2
- DMDOP [9]: 50.50 ± 2.13 pmol
- Spezifische Aktivität [9]: 6.19 ± 0.26 pmol/mg/min
- Inhibition [9]: 41.0 ± 0.25% and 41.0 ± 2.5%
- Inhibierung der LCE-Aktivität (in words) [9]: Inhibierung

Compound: MgCl2
- DMDOP [9]: 84.36 ± 17.02 pmol
- Spezifische Aktivität [9]: 10.34 ± 2.08 pmol/mg/min
- Inhibition [9]: 0%
- Inhibierung der LCE-Aktivität (in words) [9]: keine Inhibierung

- Einfluß auf LCE-Aktivität [2, 10]: keine
Compound: Neomycin

Compound: ZnCl2
- Spezifische Aktivität [9]: 0 pmol/mg/min
- Inhibition [9]: 100.0%
- Inhibierung der LCE-Aktivität (in words) [9]: totalen Hemmung
- Inhibierung der LCE-Aktivität (in words) ([9]; listed as Zn^2+): Inhibierung

Reference: EP0791056B1, “LIPID-CLEAVAGE ENZYME COMPLEX” (priority 1994, dated 1996)
